Columns and labels:
granulation tissue = experiment: Subcutaneous Ivalon sponge implantation, histological analysis of granulation tissue formation; type: in vivo, Sprague-Dawley rats; conditions: for Sponge: score on the 0-4 scale, tested in a similar manner to collagen/sucrose octasulfate, potassium salts
Method: By means of subcutaneous implantation of Ivalon sponges the phase of granulation tissue formation in the repair process can be evaluated. Following a vigorous cleanup procedure the sponge material evokes only minimal inflammatory response. Sterile sponges prepared as set forth in Example 12 were injected with a 50 µl suspension of collagen/sucrose octasulfate suspension prepared as in Example 12. […] The sponges were surgically implanted into 350-500 g, male Sprague-Dawley rats. Before the implantation procedure three rats were anesthetized and their dorsal surfaces shaved and wiped with Predodyne (West Chemical Products, Lynbrook, N.Y.). Six 6 mm incisions were cut in groups of two (one on each side of the vertebral column rostrally, centrally and caudally), spaced equi-distant from each other between the pectoral and pelvic girdles on the dorsal surface. At each incision a pocket was made between the panniculus carnosus and the dermis and two sponges inserted into it, one rostrally and the other caudally; a total of 12 sponges were thus implanted in each animal. The position of each test preparation was alternated between the rostral, central and caudal positions to control the variation due to anatomical location. The incisions were closed with 11-mm Michel wound clips (Propper, Long Island City, N.Y.). Seven days following implantation the animals were sacrificed and the sponges surgically removed with their adhered connective tissue capsules. Controls, sponges injected with either PBS or collagen only were treated in a similar manner. In all, approximately 120 sponges per group were used in the study and randomly selected for biochemical and histologic analysis. The sponges were fixed in formalin and embedded in either plastic or Paraplast following dehydration. Sections were stained with hemotocylin and eosin, trichrome, silver or PAS. […] Mesenchymal cell infiltration was also scored on a predetermined scale from 0-4. […] Although the whole sponge area was used for analysis we noted that the most striking differences between the various treatments were evident in the center of the sponge. Therefore, the histologic appearance of the central zone was selected for presentation.

rabbit corneas = experiment: Rabbit cornea assay for angiogenesis; type: in vivo; conditions: grade on scale 0-4+ in rabbit cornea; potassium salts
Method: This may offer an explanation for the dense vascular bed that characterized the granulation tissue in the in-vivo experiments. Sucrose octasulate at concentrations of 0.1 to 100 µg/ml was encapsulated in Hydron and implanted in rabbit corneas. The method used was that described in Surgery 96:48-54, 1984. The […] solution (sucrose octasulfate or PBS) was mixed with an equal volume of Hydron and allowed to polymerize under reduced pressure. […] Eyes were evaluated at days 1 through 14 post-implantation for gross inflammation and, as described by Hunt, et al, in Surgery 96:48-54, 1984, for angiogenesis. Corneal neovascularization was graded on a scale of 0-4+ (integers only being assigned). Zero denotes a normal eye with no ingrowth on limbal vessels into the corneal stroma; 1+, up to 1 mm of capillary ingrowth in a localized arc adjacent to the injection site; 2+, […] ingrowth; 3+, 2-3 mm ingrowth; and 4+, 3 mm or greater ingrowth in a wide arc along the limbal edge toward the injection site. […] To ascertain that the observed angiogenesis was not secondary to an inflammatory process some eyes with a positive response were removed and stained with H&E and a nonspecific esterase stain as early as two days after implantation.

fibroblasts = experiment: Cell migration assay (Boyden chamber); type: cell-based; design: Chemokinesis: scale not given here; conditions: score, Boyden chamber, scale not defined; potassium salts
Method: Stimulation of directed movement of fibroblasts was assayed as described by Banda M.J., Knighton D.R., Hunt T.K., Werb A., Isolation of a nonmitogenic angiogenesis factor from wound fluid, Proc. Natl. Acad. Sci. 79:7773-7777, 1982. Briefly, solutions of sucrose octasulfate in PBS in concentrations resulting in final concentrations ranging from 10 -² to 10 -⁷ g/ml diluted to a final volume of 300 µℓ in DMEM supplemented with 10 percent rabbit platelet-poor plasma serum were placed in the bottom of Boyden blind-well chambers. Polylysine-coated, 5 µ -pore diameter, polycarbonate filters (Nucleopore) were placed over the test solution and 1.75-3.0 x 10⁶ fibroblasts suspended in DMEM added to the top compartment. The chambers were incubated for two and a half hours at 37 °C,
At the end of incubation of the top filter was fixed, stained and evaluated by counting the number of cells that had migrated to the bottom side of the filter. For each experiment five random fields per filter and at least 15 filters per each concentration of sucrose octasulfate were conducted. […]

| Compound | Sponge (granulation tissue) | Angiogenesis (rabbit corneas) | Chemokinesis (fibroblasts) | histologic response in sponge (granulation tissue; similar tests with sucralfate) |
| --- | --- | --- | --- | --- |
| potassium stachyose persulfate [Stachyose Tetradecasulfate] | 2.5 | 2.5 | 2.0 | – |
| O=C[C@H](O)[C@@H](O)[C@H](O)[C@H](O)COS(=O)(=O)[O-].[K+] [Glucose-6-Sulfate, potassium D-glucose-6-sulfate, reference compound] | 1 | 1 | 1 | – |
| O=S(=O)(O)OC[C@H]1O[C@@H](OS(=O)(=O)O)[C@H](OS(=O)(=O)O)[C@@H](OS(=O)(=O)O)[C@@H]1O[C@H]1O[C@H](COS(=O)(=O)O)[C@@H](OS(=O)(=O)O)[C@H](OS(=O)(=O)O)[C@H]1OS(=O)(=O)O [Maltose Octasulfate, potassium maltose octasulfate] | 3.0 | 3.0 | 3.0 | – |
| sucralfate [reference compound] | – | – | – | strong inflammatory response with no neovascularization or fibroblast migration |
| O=S(=O)([O-])OC[C@H]1O[C@H](O[C@H]2O[C@H](COS(=O)(=O)[O-])[C@@H](OS(=O)(=O)[O-])[C@H](OS(=O)(=O)[O-])[C@H]2OS(=O)(=O)[O-])[C@H](OS(=O)(=O)[O-])[C@@H](OS(=O)(=O)[O-])[C@@H]1OS(=O)(=O)[O-].[K+].[K+].[K+].[K+].[K+].[K+].[K+].[K+] [Trehalose Octasulfate, potassium trehalose octasulfate] | 3.0 | 3.0 | 2.0 | – |
| potassium melezitose persulfate [Melezitose Undecasulfate] | 1 | 1 | 1 | – |
| O=C[C@H](OS(=O)(=O)[O-])[C@@H](OS(=O)(=O)[O-])[C@H](OS(=O)(=O)[O-])[C@@H](COS(=O)(=O)[O-])OS(=O)(=O)[O-].[K+].[K+].[K+].[K+].[K+] [Glucose Pentasulfate, potassium glucose pentasulfate] | 2.5 | 2.0 | 3.0 | – |
| O=S(=O)([O-])OC[C@H]1O[C@@H](O[C@H]2[C@H](OS(=O)(=O)[O-])[C@@H](OS(=O)(=O)[O-])[C@H](OS(=O)(=O)[O-])O[C@@H]2COS(=O)(=O)[O-])[C@H](OS(=O)(=O)[O-])[C@@H](OS(=O)(=O)[O-])[C@H]1OS(=O)(=O)[O-].[K+].[K+].[K+].[K+].[K+].[K+].[K+].[K+] [Beta-Lactose Octasulfate, potassium β -lactose octasulfate] | 3.0 | 3.0 | 3.0 | – |
| O=C[C@@H](OS(=O)(=O)[O-])[C@@H](OS(=O)(=O)[O-])[C@H](OS(=O)(=O)[O-])[C@@H](COS(=O)(=O)[O-])OS(=O)(=O)[O-].[K+].[K+].[K+].[K+].[K+] [Mannose Pentasulfate, potassium mannose pentasulfate] | 3.0 | 3.0 | 4.0 | – |
| potassium sucrose trisulfate | 2.5 | 2.0 | 3.0 | – |
